Measured values taken from US8440637B2, “Combination treatment for the treatment of hepatitis C virus infection” (priority 2007, dated 2013).
l = locked nucleic acid (LNA); d = 2'-deoxy (DNA)

Columns and labels:
miR-122 = assay: Total plasma cholesterol in hypercholesterolemic and normal mice, long-term treatment; type: in vivo, mouse; settings: 5 mg/kg i.p. twice weekly
Procedure: (§1) C57BL/6J female mice were fed on high fat diet for 13 weeks before the initiation of the SEQ ID NO: 63 treatment. […] Both hypercholesterolemic and normal mice were treated i.p. twice weekly with 5 mg/kg SEQ ID NO: 63 and the corresponding mismatch control for a study period of 5½ weeks. Blood samples were collected weekly and total plasma cholesterol was measured during the entire course of the study. Upon sacrificing the mice, liver and blood samples were prepared for total RNA extraction, miRNA and mRNA quantification, assessment of the serum transaminase levels, and liver histology.
C57BL/6J female mice (Taconic M&B Laboratory Animals, Ejby, Denmark) were used. All substances were formulated in physiological saline (0.9% NaCl) to final concentration allowing the mice to receive an intraperitoneal injection volume of 10 ml/kg.
In the diet induced obesity study, the mice received a high fat (60EN %) diet (D12492, Research Diets) for 13 weeks to increase their blood cholesterol level before the dosing started. The dose regimen was stretched out to 5½ weeks of 5 mg/kg LNA-antimiR™ twice weekly. Blood plasma was collected once a week during the entire dosing period. After completion of the experiment the mice were sacrificed and RNA extracted from the livers for further analysis. Serum was also collected for analysis of liver enzymes.
Immediately before sacrifice retro-orbital sinus blood was collected in EDTA-coated tubes followed by isolation of the plasma fraction. Total plasma cholesterol was analysed using ABX Pentra Cholesterol CP (Horiba Group, Horiba ABX Diagnostics) according to the manufacturer's instructions.

miR-122a = miR-122a level in transfected Huh-7 cells by miR-122a specific qRT-PCR; type: cell-based, human; settings: transfected at 1 and 100 nM, 24 hours after transfection
Procedure: The miR-122a expressing cell line Huh-7 was transfected with LNA anti-miR5 at 1 and 100 nM concentrations according to optimized lipofectamine 2000 (LF2000, Invitrogen) protocol (as follows).
Huh-7 cells were cultivated in Eagles MEM with 10% FBS, 2 mM Glutamax I, 1× non-essential amino acids, Gentamicin 25 μg/ml. The cells were seeded in 6-well plates (300000 cells per well), in a total vol. of 2.5 ml the day before transfection. At the day of transfection a solution containing LF2000 diluted in Optimem (Invitrogen) was prepared (1.2 ml optimem+3.75 μl LF2000 per well, final 2.5 μg LF2000/ml, final tot vol 1.5 ml).
LNA Oligonucleotides (LNA anti-miRs) were also diluted in optimem. 285 μl optimem+15 μl LNA oligonucleotide (10 μM oligonucleotide stock for final concentration 100 nM and 0.1 μM for final concentration 1 nM) Cells were washed once in optimem then the 1.2 ml optimem/LF2000 mix were added to each well. Cells were incubated 7 min at room temperature in the LF2000 mix where after the 300 μl oligonucleotide optimem solution was added. […]
miR-122a levels in the RNA samples were assessed on an ABI 7500 Fast real-time PCR instrument (Applied Biosystems, USA) using a miR-122a specific qRT-PCR kit, mirVana (Ambion, USA) and miR-122a primers (Ambion, USA). […]

[1] = mouse, in vivo
Procedure: as §1
Serum from each individual mouse was prepared as follows: Blood samples were stored at room temperature for 2 h before centrifugation (10 min, 3000 rpm at room temperature). After centrifugation, serum was harvested and frozen at −20° C.
ALT and AST measurement was performed in 96-well plates using ALT and AST reagents from ABX Pentra according to the manufacturer's instructions. In short, serum samples were diluted 2.5 fold with H2O and each sample was assayed in duplicate. After addition of 50 μl diluted sample or standard (multical from ABX Pentra) to each well, 200 μl of 37° C. AST or ALT reagent mix was added to each well. Kinetic measurements were performed for 5 min with an interval of 30 s at 340 nm and 37° C. using a spectrophotometer.

[2] = type: in vitro ADME; settings: 96 h
Procedure: LNA oligonucleotide stability was tested in plasma from human or rats (it could also be mouse, monkey or dog plasma). In 45 μl plasma, 5 μl LNA oligonucleotide is added (at a final concentration of 20 μM). The LNA oligonucleotides are incubated in plasma for times ranging from 0 to 96 hours at 37° C.
At the indicated time the sample were snap frozen in liquid nitrogen. 2 μL (equals […]) LNA oligonucleotide in plasma was diluted by adding 15 μL of water and 3 μL 6× loading dye (Invitrogen). As marker a 10 bp ladder (Invitrogen, USA 10821-015) is used. To 1 μl ladder, 1 μl 6× loading and 4 μl water is added. The samples are mixed, heated to 65° C. for 10 min and loaded to a pre-run gel (16% acrylamide, 7 M UREA, 1×TBE, pre-run at 50 Watt for 1 h) and run at 50-60 Watt for […]. Subsequently, the gel is stained with 1× SyBR gold (molecular probes) in 1×TBE for 15 min. The bands were visualised using a phosphoimager from BioRad.
Stability of SEQ ID NO: 61 and SEQ ID NO: 61/miR-122a duplex were tested in mouse plasma at 37° C. over 96 hours. Shown in FIG. 12 is a SYBR-Gold stained PAGE.

Substance | reduction of total plasma cholesterol compared to saline control (miR-122; hypercholesterolemic mice, after 10 days, sustained during the study) | effect on total plasma cholesterol (in words) (miR-122; normal diet mice) | inhibition of miR-122a (in words) (miR-122a) | ALT level (in words) [1] | alanine and aspartate aminotransferase (ALT and AST) levels compared to saline (in words) [1] | stability in mouse plasma (in words) [2]
5′-CcAttGTcaCaCtCC-3′ (antisense CCATTGTCACACTCC; sugars from the 5' end ldlddllddldldll, backbone and methylation of C not given here) [SEQ ID NO: 63] | about 30% | not as pronounced | more efficient in inhibiting miR-122a at 1 nM | possibly elevated ALT level | No changes | –
5′-ccAttGtcAcaCtcCa-3′ (antisense CCATTGTCACACTCCA; sugars from the 5' end ddlddlddlddlddld, backbone and methylation of C not given here) [SEQ ID NO: 61] | – | – | – | – | – | completely stable over 96 hours
